A short description of series [1]: bulk density and tapped density of the solid. In kind it is physicochemical.
The nature of series [2]: hygroscopicity / moisture uptake on exposure to open air. In kind it is physicochemical.
A short description of series [3]: solid-form stability, conversion to the hemihydrate polymorph (DSC maximum of 143° C.). In kind it is physicochemical.
For series [4] the following is noted: prior-art form, from literature; cited from earlier work.
For series [5] the following is noted: prior-art form, purported; cited from earlier work.
[6] abbreviates: Form IV as described in summary (material of Example 2).
Setting [7] is: material of Example 5 (methanol solution evaporated to foam, dried, pulverized).

SMILES strings stand for the structures. Structures can show the parent of a compound that is named as a salt. Where two headings read alike, the source gives them in different places.

As to `Cl.Fc1ccc([C@@H]2CCNC[C@H]2COc2ccc3c(c2)OCO3)cc1` [Form IV, paroxetine hydrochloride (anhydrous)], the bulk density entry is “exceeding 0.6 g/mL” in series [1] (setting [6]) and “exceeding 0.43 g/mL” in series [1] (setting [7]). The results for the tapped density result in series [1] (setting [6]) and in series [1] (setting [7]) were “exceeding 0.9 g/mL” and greater than 0.58 g/mL, respectively. Moreover, the hygroscopic nature result in series [2] is “substantially non-hygroscopic”. Further, the moisture taken on in series [2] (exposed to open air for three days, ca. 50% relative humidity) was no more than 1.5 % by weight. Besides, the stability entry in series [3] is recorded as “very stable”. The “rate of conversion to the hemihydrate polymorph” value in series [3] (even in humid environments, DSC maximum of 143° C. as indicator) is listed as “negligible rate”.
On to `Fc1ccc([C@@H]2CCNC[C@H]2COc2ccc3c(c2)OCO3)cc1` [anhydrous form, paroxetine hydrochloride], for which the hygroscopic nature entry in series [4] is given as “hygroscopic”.
Consider `Fc1ccc([C@@H]2CCNC[C@H]2COc2ccc3c(c2)OCO3)cc1` [hemihydrate form, paroxetine hydrochloride hemihydrate], for which the stability result in series [5] was “purportedly stable”.

Source of the values: patent US6436956B1, “Useful form of anhydrous paroxetine hydrochloride” (Brantford Chemicals Inc., priority 1996, dated 2002).
